Assay results from patent US5879902A, “Diagnostic methods and kits for the evaluation of the sympathetic nervous system function” (Neuro-Biotech Inc., priority 1997, dated 1999).
Several values for one entry are separate records, joined by “and”; a condition that tells them apart may be missing. Equal values may be shown once. Where a name gives a salt, the structure may show the parent alone.

Tests used:
Type in all cases: biochemical
dopamine-β-hydroxylase [1] = biological target: T1, dopamine-β-hydroxylase (Homo sapiens, UniProt P09172); assay: Specific DBH activity in unpurified human serum (octopamine formed from tyramine, spectrophotometric); conditions: for decrease in enzyme activity on omission of the component from the incubation medium: component omitted; for % Control (DBH activity with the named component omitted) / Activity (DBH enzyme activity with the named component omitted): named ingredient omitted from reaction mixture, pool of 25 normal human serum; for Activity (DBH enzyme activity with the named component omitted): 37° C., mean ± SEM of at least 10 determinations; for saturation point (concentration saturating the enzyme activity): 20 μL human serum, tyramine varied at 10 mM ascorbate, ascorbate varied at 20 mM tyramine; for apparent Vmax: pH 5.0, Woolf's graphical method
T1 sequence (P09172 40-617 limits assumed): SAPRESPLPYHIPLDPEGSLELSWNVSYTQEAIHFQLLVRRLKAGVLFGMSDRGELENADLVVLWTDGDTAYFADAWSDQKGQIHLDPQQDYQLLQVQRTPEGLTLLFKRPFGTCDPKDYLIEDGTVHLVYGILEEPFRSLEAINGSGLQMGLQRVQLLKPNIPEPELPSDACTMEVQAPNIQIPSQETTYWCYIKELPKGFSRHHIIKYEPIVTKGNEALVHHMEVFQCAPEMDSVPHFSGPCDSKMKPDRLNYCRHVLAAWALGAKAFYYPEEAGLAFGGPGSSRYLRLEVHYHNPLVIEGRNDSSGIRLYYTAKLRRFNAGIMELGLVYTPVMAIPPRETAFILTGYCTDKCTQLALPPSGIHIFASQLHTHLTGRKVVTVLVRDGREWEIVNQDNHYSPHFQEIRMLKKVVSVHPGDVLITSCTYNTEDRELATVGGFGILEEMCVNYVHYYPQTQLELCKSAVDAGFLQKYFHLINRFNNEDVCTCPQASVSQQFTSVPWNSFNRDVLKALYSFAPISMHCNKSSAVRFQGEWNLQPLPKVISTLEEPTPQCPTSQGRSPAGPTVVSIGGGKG
Experimental: (§1) The kinetic parameters and biochemical properties were done on a pool of 25 subjects randomly distributed between males and females. An appropriate aliquot of serum was taken as enzyme source and diluted in ice-cold deionized water to a final volume of 400 μL, prior the preincubation period. For individual measurements of DBH enzyme activity, 20 μL of human serum was routinely used. For the ultrafiltration method, an aliquot of a pool of serum was passed through a DIAFLO™ Ultrafilter membrane, type YM100, and 40 μL of the ultrafiltrate was used to measure the enzyme activity (FIG. 9).
The specific DBH activity was determined by the method described by Roberge and Charbonneau (Roberge AG et al., Nutr Res, 1985, 5:57-63). The preincubation mixture contained 0.2M sodium acetate buffer (pH 5), 15 mM N-ethylmaleimide (NEM) and the enzyme source (from the serum sample) and was carried out at 25° C. for 10 min in an atmosphere of air using a metabolic shaker (Dubnoff). To the preincubated enzymatic source were added to a final volume of 1 mL: 10 mM fumarate, […], 2500 units catalase and 1 mM pargyline, as monoamide oxidasae inhibitor. Blanks and internal standards were set up in the same manner and contained 20 mM octopamine instead of the enzyme source. The incubation was started with 20 mM tyramine and conducted at 37° C. for 30 min in an atmosphere of air using a metabolic shaker (Dubnoff). The reaction was stopped on ice by adding 300 μL of 3M trichloroacetic acid to each tube and immediately centrifuged at 2500 g of at 4° C. for 10 min. The supernatant was decanted on a DOWEX™ 50×4-400 resin column and the acid eluted with 3M NH4 OH. The octopamine formed was derived to p-hydroxybenzaldehyde by periodate cleavage which was isolated by successive solvent extractions with ether and ammonia. The last aqueous phase was assayed by a dual-wavelenght spectrophotometer (333-360 nm). Specific activity was expressed […] of octopamine formed per mL per min. Recovery of octopamine added to the blank incubation mixture was 90±2%. L-tyramine was used as substrate and an aliquot of unpurified serum was taken as the enzyme source, usually 20 μL.
Apparent Michaelis constant (Km) and apparent maximum velocity (Vmax) were determined following the Woolf's graphical procedure and the usual method of Lineweaver and Burk. Statistical estimation related to enzyme kinetics was done according to Wilkinson.

dopamine-β-hydroxylase [2] = biological target: T1, dopamine-β-hydroxylase; assay: DBH activity in ultrafiltrate of human serum (DIAFLO YM100 membrane); parameters: an aliquot of a pool of serum was passed through a DIAFLO™ Ultrafilter membrane, type YM100; from tissue; host or cells: ultrafiltrate of pooled human serum; conditions: with the named substance in the medium (15 mM NEM; copper up to 4 μM)
Experimental: as §1
(§2) The specific DBH activity was determined by the method described by Roberge and Charbonneau (Roberge AG et al., Nutr Res, 1985, 5:57-63). The preincubation mixture contained 0.2M sodium acetate buffer (pH 5), 15 mM N-ethylmaleimide (NEM) and the enzyme source (from the serum sample) and was carried out at 25° C. for 10 min in an atmosphere of air using a metabolic shaker (Dubnoff). To the preincubated enzymatic source were added to a final volume of 1 mL: 10 mM fumarate, […], 2500 units catalase and 1 mM pargyline, as monoamide oxidasae inhibitor. […]
The relationship between copper and NEM in the medium was studied in an aliquot of serum passed through a DIAFLO™ Ultrafilter membrane, type YM100, and the enzyme activity was measured in the ultrafiltrate. […]

dopamine-β-hydroxylase [3] = biological target: T1, dopamine-β-hydroxylase; assay: DBH activity in human EDTA-treated blood
Experimental: (§3) The specific DBH activity was determined by the method described by Roberge and Charbonneau (Roberge AG et al., Nutr Res, 1985, 5:57-63). The preincubation mixture contained 0.2M sodium acetate buffer (pH 5), 15 mM N-ethylmaleimide (NEM) and the enzyme source (from the serum sample) and was carried out at 25° C. for 10 min in an atmosphere of air using a metabolic shaker (Dubnoff). To the preincubated enzymatic source were added to a final volume of 1 mL: 10 mM fumarate, […], 2500 units catalase and 1 mM pargyline, as monoamide oxidasae inhibitor. Blanks and internal standards were set up in the same manner and contained 20 mM octopamine instead of the enzyme source. The incubation was started with 20 mM tyramine and conducted at 37° C. for 30 min in an atmosphere of air using a metabolic shaker (Dubnoff). The reaction was stopped on ice by adding 300 μL of 3M trichloroacetic acid to each tube and immediately centrifuged at 2500 g of at 4° C. for 10 min. […]
(§4) Apparent Michaelis constant (Km) and apparent maximum velocity (Vmax) were determined following the Woolf's graphical procedure and the usual method of Lineweaver and Burk. […]
(§5) In FIG. 7A, the specific DBH enzyme activity was measured in human blood treated with EDTA, a copper chelator, in respect to pH dependence, to copper content added in the incubation medium and to kinetic parameters. […]

[4] = substrate: NCCc1ccc(O)cc1; assay: DBH activity in human EDTA-treated blood; conditions: other: EDTA-treated blood, pH 5.8, Lineweaver and Burk
Experimental: as §3, §4, §5

[5] = substrate: NCCc1ccc(O)cc1; assay: Specific DBH activity in unpurified human serum (octopamine formed from tyramine, spectrophotometric); conditions: other: human serum, pH 5.0, Woolf's graphical method
Experimental: as §1, §2, §4

CCN1C(=O)C=CC1=O [N-ethylmaleimide (NEM), N-ethylmaleimide]
decrease in enzyme activity on omission of the component from the incubation medium (dopamine-β-hydroxylase [1]; human serum): 36% and 66%
% Control (DBH activity with the named component omitted) (dopamine-β-hydroxylase [1]): 66%
Activity (DBH enzyme activity with the named component omitted) (dopamine-β-hydroxylase [1]): 35.6 ± 0.39 nmol of octopamine formed per mL per min
enzyme activity in ultrafiltrate (dopamine-β-hydroxylase [2]): 52±0.7 nmol of octopamine formed per mg of protein per hour

O=C(O)/C=C/C(=O)O [Furnarate, disodium fumarate]
% Control (DBH activity with the named component omitted) (dopamine-β-hydroxylase [1]): 88%
Activity (DBH enzyme activity with the named component omitted) (dopamine-β-hydroxylase [1]): 47.5 ± 1.00 nmol of octopamine formed per mL per min
increase in enzyme activity by addition of fumarate (dopamine-β-hydroxylase [1]; whatever the concentrations used, up to 40 mM): 12%

NCCc1ccc(O)cc1 [tyramine, L-tyramine]
Vmax (dopamine-β-hydroxylase [3]; EDTA-treated blood, pH 5.8, Lineweaver and Burk): 38.5 nmol of octopamine formed per mL per min
saturation point (concentration saturating the enzyme activity) (dopamine-β-hydroxylase [1]): 20 mM
apparent Vmax (dopamine-β-hydroxylase [1]; human serum): 72 nmol of octopamine formed per mL per min

O=C1O[C@H]([C@@H](O)CO)C(O)=C1O [ascorbate, ascorbic acid]
saturation point (concentration saturating the enzyme activity) (dopamine-β-hydroxylase [1]): 10 mM
decrease in enzyme activity on omission of the component from the incubation medium (dopamine-β-hydroxylase [1]; human serum): 96%
Km value lower than for tyramine (fold) (dopamine-β-hydroxylase [1]; human serum): 10 times
apparent Vmax (dopamine-β-hydroxylase [1]; human serum): 56 nmol of octopamine formed per mL per min
% Control (DBH activity with the named component omitted) (dopamine-β-hydroxylase [1]): 4%
Activity (DBH enzyme activity with the named component omitted) (dopamine-β-hydroxylase [1]): 2.2 ± 0.19 nmol of octopamine formed per mL per min

[Cu] [copper]
effect of exogenous copper on EDTA inhibition (dopamine-β-hydroxylase [3]; copper from 0 to 100 μM in the medium): progressively reversed
maximum decrease in enzyme activity (dopamine-β-hydroxylase [1]; 20 μM exogenous copper, with 15 mM NEM in the medium): 90%
exogenous copper content above which enzyme activity decreases significantly (dopamine-β-hydroxylase [1]; with 15 mM NEM in the medium): higher than 2 μM
exogenous copper concentration above which enzyme activity decreases significantly (dopamine-β-hydroxylase [1]; without NEM in the medium): higher than 4 μM
enzyme activity in ultrafiltrate (dopamine-β-hydroxylase [2]): 51±0.56 nmol of octopamine formed per mg of protein per hour

B1: dopamine-β-hydroxylase (Homo sapiens) (protein)
chain: T1 sequence (P09172 40-617 limits assumed)
notes: from tissue; host or cells: human serum, unpurified (pool of 25 subjects; also individual subjects)
Km [4]: 2.4 mM
Km [5]: 8 mM

B2: Catalase: beef liver catalase, added for peroxide degradation (protein, UniProt P00432 2-527, looked up)
Catalase: ADNRDPASDQMKHWKEQRAAQKPDVLTTGGGNPVGDKLNSLTVGPRGPLLVQDVVFTDEMAHFDRERIPERVVHAKGAGAFGYFEVTHDITRYSKAKVFEHIGKRTPIAVRFSTVAGESGSADTVRDPRGFAVKFYTEDGNWDLVGNNTPIFFIRDALLFPSFIHSQKRNPQTHLKDPDMVWDFWSLRPESLHQVSFLFSDRGIPDGHRHMNGYGSHTFKLVNANGEAVYCKFHYKTDQGIKNLSVEDAARLAHEDPDYGLRDLFNAIATGNYPSWTLYIQVMTFSEAEIFPFNPFDLTKVWPHGDYPLIPVGKLVLNRNPVNYFAEVEQLAFDPSNMPPGIEPSPDKMLQGRLFAYPDTHRHRLGPNYLQIPVNCPYRARVANYQRDGPMCMMDNQGGAPNYYPNSFSAPEHQPSALEHRTHFSGDVQRFNSANDDNVTQVRTFYLKVLNEEQRKRLCENIAGHLKDAQLFIQKKAVKNFSDVHPEYGSRIQALLDKYNEEKPKNAVHTYVQHGSHLSAREKANL
catalase amount up to which enzyme activity increases (then plateau till 4000 units) (dopamine-β-hydroxylase [1]; human serum): 2000 units
% Control (DBH activity with the named component omitted) (dopamine-β-hydroxylase [1]): 10%
Activity (DBH enzyme activity with the named component omitted) (dopamine-β-hydroxylase [1]): 5.6 ± 0.45 nmol of octopamine formed per mL per min
